Where a chain is given by its changes, count along the chain named.
Tests used:
[1] = target: T1, hNSun6 (Homo sapiens, UniProt Q8TEA1); experiment: isothermal titration calorimetry; type: binding
T1 sequence (Q8TEA1 1-469): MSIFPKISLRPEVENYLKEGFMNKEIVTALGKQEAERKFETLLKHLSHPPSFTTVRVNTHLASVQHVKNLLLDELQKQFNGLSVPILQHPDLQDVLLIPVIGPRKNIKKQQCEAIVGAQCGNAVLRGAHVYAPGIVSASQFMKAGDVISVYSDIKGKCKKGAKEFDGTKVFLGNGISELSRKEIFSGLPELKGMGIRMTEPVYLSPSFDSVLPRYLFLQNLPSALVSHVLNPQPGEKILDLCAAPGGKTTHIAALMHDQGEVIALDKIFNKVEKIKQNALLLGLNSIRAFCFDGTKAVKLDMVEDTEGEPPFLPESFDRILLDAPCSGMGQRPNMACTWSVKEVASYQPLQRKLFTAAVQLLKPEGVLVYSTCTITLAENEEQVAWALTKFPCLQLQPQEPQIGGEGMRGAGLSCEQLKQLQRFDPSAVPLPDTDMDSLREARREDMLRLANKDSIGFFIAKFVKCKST

[2] = target: T2, hNSun6 (Homo sapiens, UniProt Q8TEA1, K248A); experiment: isothermal titration calorimetry; type: binding
T2 sequence (Q8TEA1 1-469 K248A): T1 sequence (Q8TEA1 1-469) with K248A

## C[S+](CC[C@H](N)C(=O)O)C[C@H]1O[C@@H](n2cnc3c(N)ncnc32)[C@H](O)[C@@H]1O (some centres unmarked) [SAM]
[1]
  Kd: 1.7 µM
[2]
  Kd: 10.3 µM
